ChEMBL document CHEMBL1914384, “Design, synthesis, and structure-activity relationship studies of highly potent novel benzoxazinyl-oxazolidinone antibacterial agents” (J Med Chem, 2011)
Values after ≈ are worked out from the molar mass of the structure shown.

Key:
Type in all cases: functional
[1] = system: Staphylococcus aureus; experiment: Antibacterial activity against Staphylococcus aureus ATCC 29213 after 16 hrs by agar dilution method; conditions: ATCC 29213, 16 h
[2] = system: Staphylococcus aureus; experiment: Antibacterial activity against methicillin-resistant Staphylococcus aureus after 16 hrs by agar dilution method
[3] = system: Staphylococcus epidermidis; experiment: Antibacterial activity against methicillin-resistant Staphylococcus epidermidis after 16 hrs by agar dilution method
[4] = system: Streptococcus pneumoniae; experiment: Antibacterial activity against penicillin-resistant Streptococcus pneumoniae after 16 hrs by agar dilution method
[5] = system: Enterococcus faecalis; experiment: Antibacterial activity against Enterococcus faecalis after 16 hrs by agar dilution method

Row | SMILES | MIC [1] [µg/mL] | MIC [2] [µg/mL] | MIC [3] [µg/mL] | MIC [4] [µg/mL] | MIC [5] [µg/mL]
1 | CC(=O)NC[C@@H]1OC(=O)N2c3ccc(-c4cnc(N)nc4)cc3OC[C@@H]12 | 1 (≈ 2.81 µM) | 1 (≈ 2.81 µM) | 1 (≈ 2.81 µM) | 1 (≈ 2.81 µM) | 2 (≈ 5.63 µM)
2 | CC(=O)NC[C@@H]1OC(=O)N2c3ccc(-c4cnc(C#N)nc4)cc3OC[C@@H]12 | 1 (≈ 2.74 µM) | 1 (≈ 2.74 µM) | 0.5 (≈ 1.37 µM) | 2 (≈ 5.47 µM) | 2 (≈ 5.47 µM)
3 | CC(=O)NC[C@@H]1OC(=O)N2c3cc(F)c(-c4ccncc4)cc3OC[C@@H]12 | 2 (≈ 5.6 µM) | 4 (≈ 11.2 µM) | 2 (≈ 5.6 µM) | 8 (≈ 22.4 µM) | 8 (≈ 22.4 µM)
4 | CC(=O)NC[C@@H]1OC(=O)N2c3cc(F)c(-c4cccnc4)cc3OC[C@@H]12 | 2 (≈ 5.6 µM) | 1 (≈ 2.8 µM) | 1 (≈ 2.8 µM) | 2 (≈ 5.6 µM) | 2 (≈ 5.6 µM)
5 | CC(=O)NC[C@@H]1OC(=O)N2c3cc(F)c(-c4ccc(C#N)nc4)cc3OC[C@@H]12 | 2 (≈ 5.23 µM) | 1 (≈ 2.62 µM) | 1 (≈ 2.62 µM) | 2 (≈ 5.23 µM) | 2 (≈ 5.23 µM)
6 | CC(=O)NC[C@@H]1OC(=O)N2c3ccc(-c4ccc(NC(C)=O)nc4)cc3OC[C@@H]12 | 0.5 (≈ 1.26 µM) | 0.5 (≈ 1.26 µM) | 1 (≈ 2.52 µM) | 1 (≈ 2.52 µM) | 1 (≈ 2.52 µM)
7 | CC(=O)NC[C@@H]1OC(=O)N2c3ccc(-c4ccc(-c5nnn(C)n5)nc4)cc3OC[C@@H]12 | 0.5 (≈ 1.19 µM) | 0.5 (≈ 1.19 µM) | 0.5 (≈ 1.19 µM) | 0.5 (≈ 1.19 µM) | 1 (≈ 2.37 µM)
8 | CC(=O)NC[C@@H]1OC(=O)N2c3ccc(-c4ccc(-c5noc(C)n5)nc4)cc3OC[C@@H]12 | 0.25 (≈ 0.593 µM) | 0.5 (≈ 1.19 µM) | 0.5 (≈ 1.19 µM) | 1 (≈ 2.37 µM) | 1 (≈ 2.37 µM)
9 | CC(=O)NC[C@@H]1OC(=O)N2c3ccc(-c4ccc(CC#N)nc4)cc3OC[C@@H]12 | 0.25 (≈ 0.661 µM) | 0.25 (≈ 0.661 µM) | 0.25 (≈ 0.661 µM) | 0.5 (≈ 1.32 µM) | 0.5 (≈ 1.32 µM)
10 | CC(=O)NC[C@@H]1OC(=O)N2c3ccc(-c4ccc(N5CCNCC5)nc4)cc3OC[C@@H]12 | 0.5 (≈ 1.18 µM) | 1 (≈ 2.36 µM) | 0.5 (≈ 1.18 µM) | 1 (≈ 2.36 µM) | 0.5 (≈ 1.18 µM)
11 | CC(=O)NC[C@@H]1OC(=O)N2c3ccc(-c4ccc(C(=O)N(C)C)nc4)cc3OC[C@@H]12 | 2 (≈ 4.87 µM) | 1 (≈ 2.44 µM) | 1 (≈ 2.44 µM) | 2 (≈ 4.87 µM) | 2 (≈ 4.87 µM)
12 | CC(=O)NC[C@@H]1OC(=O)N2c3ccc(-c4ccc(-n5cncn5)nc4)cc3OC[C@@H]12 | 0.5 (≈ 1.23 µM) | 1 (≈ 2.46 µM) | 1 (≈ 2.46 µM) | 2 (≈ 4.92 µM) | 2 (≈ 4.92 µM)
13 | CC(=O)NC[C@@H]1OC(=O)N2c3ccc(-c4ccc(C(F)(F)F)nc4)cc3OC[C@@H]12 | 2 (≈ 4.91 µM) | 1 (≈ 2.45 µM) | 1 (≈ 2.45 µM) | 2 (≈ 4.91 µM) | 2 (≈ 4.91 µM)
14 | COC(=O)c1ccc(-c2ccc3c(c2)OC[C@H]2[C@H](CNC(C)=O)OC(=O)N32)cn1 | 0.5 (≈ 1.26 µM) | 0.5 (≈ 1.26 µM) | 0.5 (≈ 1.26 µM) | 1 (≈ 2.52 µM) | 1 (≈ 2.52 µM)
15 | CC(=O)NC[C@@H]1OC(=O)N2c3ccc(-c4cncc(C#N)c4)cc3OC[C@@H]12 | 0.5 (≈ 1.37 µM) | 0.5 (≈ 1.37 µM) | 0.5 (≈ 1.37 µM) | 0.5 (≈ 1.37 µM) | 1 (≈ 2.74 µM)
16 | CC(=O)NC[C@@H]1OC(=O)N2c3ccc(-c4ccc(C#N)cn4)cc3OC[C@@H]12 | 2 (≈ 5.49 µM) | 1 (≈ 2.74 µM) | 1 (≈ 2.74 µM) | 2 (≈ 5.49 µM) | 2 (≈ 5.49 µM)
17 | CC(=O)NC[C@@H]1OC(=O)N2c3ccc(-c4cc(C#N)ccn4)cc3OC[C@@H]12 | 0.5 (≈ 1.37 µM) | 0.5 (≈ 1.37 µM) | 0.25 (≈ 0.686 µM) | 0.25 (≈ 0.686 µM) | 1 (≈ 2.74 µM)
18 | CC(=O)NC[C@@H]1OC(=O)N2c3ccc(-c4cncc(C(C)=O)c4)cc3OC[C@@H]12 | 1 (≈ 2.62 µM) | 1 (≈ 2.62 µM) | 0.5 (≈ 1.31 µM) | 1 (≈ 2.62 µM) | 1 (≈ 2.62 µM)
19 | CC(=O)NC[C@@H]1OC(=O)N2c3ccc(-c4ccc(C(C)=O)cn4)cc3OC[C@@H]12 | 2 (≈ 5.24 µM) | 2 (≈ 5.24 µM) | 2 (≈ 5.24 µM) | 2 (≈ 5.24 µM) | 4 (≈ 10.5 µM)
20 | CC(=O)NC[C@@H]1OC(=O)N2c3ccc(-c4cncc(N5CCOC5=O)c4)cc3OC[C@@H]12 | 1 (≈ 2.36 µM) | 0.5 (≈ 1.18 µM) | 0.5 (≈ 1.18 µM) | 1 (≈ 2.36 µM) | 0.5 (≈ 1.18 µM)
21 | CC(=O)NC[C@@H]1OC(=O)N2c3ccc(-c4ccc(N5CCOC5=O)cn4)cc3OC[C@@H]12 | 1 (≈ 2.36 µM) | 1 (≈ 2.36 µM) | 1 (≈ 2.36 µM) | 1 (≈ 2.36 µM) | 2 (≈ 4.71 µM)
22 | CC(=O)NC[C@@H]1OC(=O)N2c3ccc(-c4ccc(C#N)nc4)cc3OC[C@H]12 | > 16 | > 16 | > 16 | > 16 | > 16
23 | CC(=O)NC[C@@H]1OC(=O)N2c3ccc(-c4ccc(-n5ccnc5)nc4)cc3OC[C@@H]12 | 0.5 (≈ 1.23 µM) | 0.5 (≈ 1.23 µM) | 0.5 (≈ 1.23 µM) | 0.5 (≈ 1.23 µM) | 1 (≈ 2.47 µM)
